How the values were obtained:
[1] = test system: intracellular calcium in Huh-7 cells; assay: Real-time live cell calcium imaging in BBP-treated Huh-7 cells; assay type: cell-based, human
Description: Cells were pre-treated with Fluo-4 (1 μM), a Ca^2+-specific dye, in BSS buffer at 37° C. for 20 min before treatment with BBP (1 μM). Measurements of relative intracellular calcium intensity were performed by real-time cell imaging microscopy and analyzed by Cell-R software system (Olympus).

Huh-7 cells = assay: BBP-induced signaling in Huh-7 cells (RT-PCR, Western blot, immunofluorescence); assay type: cell-based, human
Description: Huh-7 cells (3×10^5) were seeded into a 6-well dish and incubated for 24 h. Cells cultured serum-free medium overnight were treated with BBP (1 μM) for various time intervals. After BBP stimulation, cells were washed twice with PBS. Total RNAs were extracted by TRIzol methods (Invitrogen). RNA (2 μg) was used to synthesize cDNA by Reverse Transcription System (Promega). The c-DNAs were amplified by the specific primers. The primer pairs were designed as follows: AhR, forward 5′-TACTCTGCCGCCCAAACTGG-3′ (SEQ ID NO:49), reverse 5′-GCTCTGCAACCTCCGATTCC-3′ (SEQ ID NO:50); β-actin, forward 5′-CTC GCT GTC CAC CTT CCA-3′ (SEQ ID NO:51), reverse 5′-GCT GTC ACC TTC ACC GTTC-3′ (SEQ ID NO:52). PCR conditions were set at 95° C. for 5 min and 95° C. for 30 sec, 54° C. for 30 sec, 72° C. for 1 min followed by 72° C. for 10 min (36 cycles). The products were separated by 2% agarose gels and visualized by ethidium bromide.
Huh-7 cells (1×10^6) were seeded into 10 cm dish and cultured overnight. The culture medium was changed to serum-free medium for another night. Cells were treated with BBP (1 μM) for various time intervals. […] Cells were then washed twice with ice-cold PBS and lysed by RIPA lysis buffer (Minipore). Protein concentration was measured by BCA protein assay kit (Thermo). Equal amounts of protein (30 μg protein) were resolved by 8% SDS-PAGE, transferred onto PVDF membrane, and blocked with 5% non-fat dry milk for 1 h at room temperature. After blocking, the membrane was incubated with the primary antibodies including AhR (1:1000), Cox-2 (1:1000), Gαq/11 (1:100), Gβ (1:100), β-actin (1:5000), p44/42 MAP kinase (1:1000) or phospho-p44/42 MAP kinase (1:1000) overnight at 4° C. Cells were washed three times with PBST and then incubated with HRP conjugated secondary antibodies for 1 h at room temperature. After washing, the blot was visualized using an enhanced chemiluminescence kit (ECL) (Amersham).
Cells with or without transfection by AhR siRNA were cultured and treated with BBP (1 μM) for 5 and 15 min each. After treatment with primary and secondary antibodies for AhR and Gαq/11, cells were subjected to confocal immunofluorescence microscopy to analyze the dynamic movement in the cell compartments.

IP3R = conditions: pretreatment with 2-APB
[2] = test system: intracellular calcium in hTS cells; assay: Real-time live cell calcium imaging in RA-treated hTS cells; assay type: cell-based, human
Description: FIGS. 21a-21n illustrate activation of Gαq/11 signaling pathway: (21a) illustrates expressions of Gαq/11 pathway-related components after RA treatment (10 μM) over time by Western blots; (21b) illustrates real-time live cell imaging microscopy (Cell-R system, Olympus, Tokyo) in hTS cells which were cultured in the calcium-free medium and pre-loaded with Fluo4 (1 μM) in BSS buffer 20 min before RA treatment. […] (c) After depletion of ER calcium, KCl (60 mM) enabled to activate L-type calcium channels.

CaMKII = CaMKII inhibitor effect on eIF4B expression (Western blots); assay type: cell-based, human; conditions: KN93 1 μM, 2 hr
Description: FIGS. 21a-21n illustrate activation of Gαq/11 signaling pathway: (21a) illustrates expressions of Gαq/11 pathway-related components after RA treatment (10 μM) over time by Western blots; (21b) illustrates real-time live cell imaging microscopy (Cell-R system, Olympus, Tokyo) in hTS cells which were cultured in the calcium-free medium and pre-loaded with Fluo4 (1 μM) in BSS buffer 20 min before RA treatment. (a) The RA-induced depletion of intracellular calcium was rescued by adding CaCl2 (2 mM) with a SOCE pattern. […] (c) After depletion of ER calcium, KCl (60 mM) enabled to activate L-type calcium channels.
The transient CaMKII bound and activated eukaryotic initiation factor 4B (eIF4B) (FIG. 21c) to initiate mRNA translation machinery via a cap-independent mechanism.

AhR = assay: TIRF microscopy of GFP-tagged AhR at the plasma membrane in Huh-7 cells; assay type: cell-based, human; conditions: BBP 1 μM
Description: Immunofluorescence studies are considered important for the dynamic study of signal transduction through their ability to capture snapshots of molecular changes in the cell. Human hepatic Huh-7 cancer cells were pre-transfected with pGFP-C1-AhR by using LT1 transfection reagent (Minis Bio LLC, WI) and total internal reflection fluorescence microscopy to selectively observe the molecular events in the cytoplasmic region immediately beneath the plasma membrane. When BBP was introduced, a rapid but transient recruitment and translocation of the GFP-tagged AhR occurred at the subcellular membrane regions, showing a fast elevation and peaking in 115 seconds followed by a gradual decrease in AhR that occurred over a few minutes (FIG. 14a). This fast, dynamic movement of the memAhR at the subcellular membrane is reminiscent of the notion of soft-wired signal transduction.
Huh-7 cells were pre-transfected with pGFP-C1-AhR (a gift of H. Li) by using LT1 transfection reagent (Minis Bio LLC, Madison, WI) for 24 h. For TIRF microscopy, cells were cultured in serum-free medium on cover-slip overnight followed by stimulation by BBP (1 μM, Sigma). The dynamic activities of GFP-tagged AhR at the cell membrane were observed and analyzed by using Zeiss TIRF microscope with Axio Vision Rel. 4.8 software.

hTS cells [3] = assay: RA effect on Nanog, Oct4, Sox2, Cdx2 expression in hTS cells (flow cytometry)
hTS cells [4] = assay: RA-induced differentiation of hTS cells; assay type: cell-based, human
Description: In another embodiment, a similar ratio in distribution of mixed RA-induced neural progenitors results over 1 to 5-day RA-induction periods. In another embodiment, the cell differentiation becomes undefined trophoblast giant cells over a 7-day RA treatment.
Cells were cultured in conditioned α-MEM containing 20% FBS, 1% penicillin-streptomycin, and 10 μg/ml bFGF (CytoLab Ltd, Rehovot, Israel) at 37° C. in 5% CO2. The medium was refreshed every 3 days in general. After 5 passages of culture, cell differentiations into a variety of specific cell phenotypes were performed by various strategies as shown in the Table in FIG. 12. For osteogenic differentiation, cytochemical mineral matrix was analyzed using an Alizarin red S assay (Sigma-Aldrich, St. Louis, MO) to detect the calcium mineral content. To identify the calcium deposits, cells were fixed and incubated with 2% silver nitrate solution (w/v) for 10 min in dark followed by thorough wash with de-ionized water and exposed under bright light for 15 min. Cells were treated with […] to detect alkaline phosphatase activity using a commercial kit (Sigma-Aldrich, St. Louis, MO). Chondrogenic differentiation was confirmed using Alcian blue staining (Sigma-Aldrich, St. Louis, MO) at an acidic pH level. […]

[5] = test system: protein kinase C (PKC) pathway; conditions: cited from earlier work
hTS cells [6] = assay: RA-induced protein/mRNA expression over time in hTS cells (Western blots, RT-PCR, flow cytometry); assay type: cell-based, human
Description: For RT-PCR, total RNA from 10^5-10^6 cells was extracted by using TRIZOL reagent (Invitrogen) and mRNA expression by using a Ready-To-Go RT-PCR Beads kit (Amersham Biosciences, Buckinghamshire, UK). Briefly, the reaction products were resolved on 1.5% agarose gel and visualized with ethidium bromide. β-actin or β-2 microglobulin was used as a positive control. All experiments were performed in triplicate. For qPCR, gene expression was measured with the iQ5 Real-Time PCR Detection System (Bio-Rad Laboratories) and analyzed with Bio-Rad iQ5 Optical System Software, version 2.0 (Bio-Rad Laboratories). Relative mRNA levels were calculated using the comparative Ct method (Bio-Rad, instruction manual) and presented as a ratio to biological controls. All primer pairs were confirmed to approximately double the amount of product within one cycle and to yield a single product of the predicted size.
Cells were seeded into 10 cm dish with the serum-free medium for overnight and treated with or without RA (10 μM) for various time intervals as indicated. After stimulation, cells were washed twice with ice-cold PBS and lysed by RIPA lysis buffer (Minipore). Protein concentration was determined by BCA protein assay kit (Thermo). Equal amounts of protein (30 μg) were resolved by 8% SDS-PAGE, transferred onto PVDF membrane and blocked with 5% non-fat dry milk for 1 h at room temperature. After blocking, the membrane was incubated with primary antibodies for 4 h at 4° C. Cells were washed three times with PBST and then incubated with HRP conjugated secondary antibodies for 1 h at room temperature. After washing six times with PBST buffer, the membrane was incubated with a chemiluminescent substrate (GE Healthcare) for 1 min. Specific bands were visualized using an enhanced chemiluminescence kit (ECL) (Amersham).
hTS cells obtained from the preimplantation embryos in women with early tubal ectopic pregnancy were described previously. Adherent hTS cells were cultured in conditioned α-MEM containing 10 μg/ml bFGF (JRH, Biosciences, San Jose, CA), 10% FBS, and 1% penicillin-streptomycin at 37° C. in 5% CO2. Cells were treated by RA (10 μM) for various time intervals depending on the experiments.

Structure (SMILES): NCCOB(c1ccccc1)c1ccccc1 [2-APB, 2-aminoethoxydiphenyl borate]
- BBP-elicited intracellular calcium levels ([1]; 2-APB at various concentrations): dose-dependently inhibit
- BBP-induced COX-2 production (Huh-7 cells): blocked
- Calcineurin, NFAT1, and MEF2A expression (IP3R): inhibited
- RA-induced ER calcium release ([2]; 2-APB, dose-dependent): inhibited

Structure (SMILES): COc1ccc(S(=O)(=O)N(CCO)c2ccccc2CN(C)C/C=C/c2ccc(Cl)cc2)cc1 [KN93]
- eIF4B expression (CaMKII): inhibited

Structure (SMILES): CCCCOC(=O)c1ccccc1C(=O)OCc1ccccc1 [BBP, Benzyl butyl phthalate]
- intracellular calcium response ([1]; BBP 1 μM, calcium free medium): release of intracellular calcium
- time of COX-2 production (Huh-7 cells; BBP 1 μM): 15 min
- time of induction of AhR mRNA expression (Huh-7 cells; BBP 1 μM, RT-PCR): 5 min
- time of peak AhR mRNA expression (Huh-7 cells; BBP 1 μM, RT-PCR): 15 min
- time of Gαq/11 and Gβ production (Huh-7 cells; BBP 1 μM, Western blot): 30 min
- time of elevation in AhR production (Huh-7 cells; BBP 1 μM, Western blot): 15 min
- ARNT expression (Huh-7 cells; BBP 1 μM, overnight): significantly inhibited
- time of ERK1/2 phosphorylation (Huh-7 cells; BBP 1 μM, dephosphorylated at 30 min): 15 min
- time to peak of GFP-tagged AhR recruitment at subcellular membrane (AhR): 115 s

Structure (SMILES): CC1=C(/C=C/C(C)=C/C=C/C(C)=C/C(=O)O)C(C)(C)CCC1 [RA, all-trans retinoic acid]
- effect on expression of Nanog, Oct4, Sox2, Cdx2 (hTS cells [3]; RA one day): promoted expressions of Nanog, Oct4 and Sox2 but not Cdx2
- Nanog expression (hTS cells [3]; RA-induced cells (10 μM, 1 day)): 26.9%
- differentiation of hTS cells into neural cell phenotypes (hTS cells [4]; RA 10 μM, 1 to 7 days): induces hTS cells differentiation into a variety of phenotypical neural cells
- giant cell formation (hTS cells [4]; treatment with all-trans retinoic acid): resulted in a formation of giant cells
- intracellular Ca2+ response ([2]; RA, calcium-free medium, Fluo4): transiently intracellular Ca^2+ release
- time of translocation of PKC-γ [5]: ≤ 5 min
- increase in intracellular diacylglycerol (DG) ([5]; transient, at 2 min): 1.3 fold
- time of peak c-Src mRNA expression (hTS cells [6]; RA 10 μM, RT-PCR): 15 min
- time of transient elevation of RXRα mRNA and RARβ mRNA (hTS cells [6]; RA 10 μM, RT-PCR): 15 min
- time of production of c-Src protein (hTS cells [6]; RA 10 μM, Western blot): 1 h
- Wnt2B and FRAT1 expression (hTS cells [6]; RA 4 hr and 24 hr incubation, Western blots): significantly upregulated
- GSK3β activity state (hTS cells [6]; RA 4 hr vs overnight, flow cytometry): initially activated in 4 hr but transited into inhibitory later
- Fzd6 mRNA expression (hTS cells [6]; RA, RT-PCR): overexpression
- calcineurin production (hTS cells [6]; RA, Western blot): induced production
- time of CaMKII activation (hTS cells [6]; RA, Western blot): 1 to 2 h
- time of HDAC6 elevation (hTS cells [6]; RA, Western blot): 2 h
- time of Nanog production (hTS cells [6]; RA, Western blot): 4 h
- time of RARβ production (hTS cells [6]; RA, Western blots): 4 h
- time of c-Src expression (hTS cells [6]; RA, Western blots): 5 min
- time of production of Gαq/11 and Gβ (hTS cells [6]; RA, Western blots): 30 min
- time of transient Akt3 activation (hTS cells [6]; RA, Western blots): 1 h
- β-catenin activation (hTS cells [6]; RA, between 30 min and 24 hr, Western blots): significantly activated
- time of mTOR phosphorylation at serine 2448 (hTS cells [6]; RA, disappeared after 24 hr): 4 h
- time of peak eIF4B production (hTS cells [6]; RA, fading away at 24 hr): 4 h

Reference: patent publication US11891623B2, “Generation of neural stem cells from human trophoblast stem cells” (Accelerated BioSciences Corp., priority 2010, dated 2024)
